Laboratory results: patent US6911194B2, “Skin preparation” (PhotoCure ASA, priority 2000, dated 2005)

Legend:
skin of nude BALB/c mice = assay: Localization of PpIX fluorescence on skin of nude mice under UV lamp (Example 6)
naked mice = details: topical ALA, simulated solar UV radiation; cited from earlier work
forearm skin of a person = assay: Erythema and PpIX fluorescence on forearm skin after topical cream and UVA light (Example 7); type: in vivo, human; details: for content of PpIX produced in the skin areas (fluorescence emission spectra): 20% cream on forearm; for erythema: 20% cream, UVA black light 5 min two hours after application, observed 24 hours later
Method: A cream (Unguentum, Merck) containing 20% ALA, ALA butyl ester and ALA hexyl ester respectively, was applied on three separate areas on the skin of the forearm of a person. Two hours later the skin areas were exposed to UVA light from a black light lamp for 5 min.
The content of PpIX produced in the skin areas was assessed by measuring the fluorescence emission spectra.

[1] = PpIX concentration in plasma after topical application in mice (Example 5); type: in vivo, mouse; details: 20 hr after topical application of 20% cream
Method: A cream was prepared using 20% (wt/wt) ALA, ALA-Me or ALA-Hex in an ointment (Unguentum, Merck, Darmstadt, Germany). Approximately 0.2 mg of the freshly prepared cream was applied on a single spot of 1 cm diameter on normal skin of each mouse. An adhesive dressing (OpSite Flexigrid, Smith and Nephew Medical, LTD, Hull, England) with a punched hole of 1 cm in diameter was first put on the skin. Then the cream was applied on the skin in the punched hole and covered with another similar dressing. 20 hours application time was used.
Female Balb/c athymic nude mice were obtained from Bomholt Gaard (Ry, Denmark). At the start of each experiment, they were 7-8 weeks old and weighed 18-25 g. Three mice were housed per cage with autoclaved filter covers in a room with subdued light at constant temperature (24-26° C.) and humidity (30-50%). Food and bedding were sterilized and the mice were given tap water ad libitum in sterilized bottles. For proper application of the cream, anaesthesia, hypnorm dormicum (approximately 4 ml/kg body weight), was i.p. injected into the mice.
Immediately after mice were killed, whole blood was drawn directly from the right atrium of the heart. The total volume of blood obtained from each mouse was approximately 0.2 ml and was selected in EDTA-treated micro-tubes. The red blood cells were fluorimetrically determined as described above.

Balb/c athymic nude mice = assay: Tissue distribution of PpIX fluorescence after topical application in mice (Example 5); type: in vivo, mouse; details: 20% cream topical, compared to ALA methyl ester
Method: ALA, ALA methyl ester and ALA hexyl ester containing cream was applied locally on the skin surface of hairless mice. Fluorescence intensities were used as indications of the concentration of PpIX on the application site (skin), in remote skin spots, in liver, intestine, lungs, muscle and brain and plasma.
A cream was prepared using 20% (wt/wt) ALA, ALA-Me or ALA-Hex in an ointment (Unguentum, Merck, Darmstadt, Germany). Approximately 0.2 mg of the freshly prepared cream was applied on a single spot of 1 cm diameter on normal skin of each mouse. An adhesive dressing (OpSite Flexigrid, Smith and Nephew Medical, LTD, Hull, England) with a punched hole of 1 cm in diameter was first put on the skin. Then the cream was applied on the skin in the punched hole and covered with another similar dressing. […]
Female Balb/c athymic nude mice were obtained from Bomholt Gaard (Ry, Denmark). At the start of each experiment, they were 7-8 weeks old and weighed 18-25 g. Three mice were housed per cage with autoclaved filter covers in a room with subdued light at constant temperature (24-26° C.) and humidity (30-50%). […]
The method for determining the amounts of PpIX in tissues was described previously (Ma et al., 1998). […] Levels of PpIX in the supernatants were quantitatively determined by recording fluorescence emission spectra of the samples using a Perkin-Elmer (Norwalk, Conn.) LS 50B spectrofluorimeter. […]

human skin [2] = assay: Erythema and pigmentation on human forearm after topical cream and black light (Example 4, Experiment B); type: in vivo; details: for erythema: high doses: drug 20%, light 3 min, cream applied 4 hours
Method: ALA and ALA derivatives in cream was applied to different areas on the forearm of a person. Four hours afterwards the cream was removed and the arm was exposed to black light, 380 nm, for 1-5 min. The skin of the arm was examined for two weeks.

human skin [3] = assay: Erythema on human hands after topical cream and blacklight exposure (Example 2); type: in vivo; details: 20% in Unguentum Merck cream, 5 hours on hands, blacklight 350-400 nm for 5 min or 1 min
Method: A high concentration of ALA and ALA-methyl ester (20%, Sigma) in a cream (Unguentum Merck) was applied to a circular area of 1 cm diameter for 5 hours on both hands of a person, FIGS. 1(A, B). A means ALA, M means ALA-methyl ester. The areas of application are shown by the dotted circles on the figure. The cream with the drugs were carefully washed away and the areas were exposed to ordinary blacklight from a fluorescence tube. The wavelengths of the light fall within the region 350-400 nm, FIG. 2. An exposure of 5 minutes was given to the left hand and an exposure of 1 minute was given to the right hand.

[4] = test system: skin of C3H/Tif hairless mice; assay: Pigmentation of hairless mouse skin after topical drug and red laser light (Example 4, Experiment A); type: in vivo
Method: One hour after the application, the mice were exposed to light for 1 min (red laser light, 100 m/Wcm^2, 633 nm). […] The treatment was repeated 10 times within 2 weeks.

SKH1 hairless mouse = assay: Prevention of UV-induced skin cancer by multiple topical ALA-Me PDT sessions (Example 8); type: in vivo
Method: The ability of multiple photodynamic therapy (PDT) sessions with topical ALA methylester (ALA-Me) to prevent skin cancer induced by ultraviolet radiation (UV) was studied in the SKH1 hairless mouse. Groups of 20 mice were exposed 5 days per week to UV from FS20 tubes. One group was treated weekly with 8% topical ALA-Me followed 2 hours later by 1.2 J/cm^2 of light from a slide projector, The number, location, and size of skin tumors were registered weekly. Other study groups included: mice treated with 8% ALA-Me and not exposed to light, mice exposed to UV and vehicle, mice exposed to topical ALA-Me and light but not UV, as well as mice exposed to UV with half of their bodies treated with 8% ALA-Me and half of their bodies treated with the vehicle. […] After 26 weeks of UV exposure large tumors (≧4 mm) were present in 14 mice of the UV group as compared to only one mouse in the UV-ALA-Me group.

## NCC(=O)CCC(=O)O [ALA, 5-aminolevulinic acid]
Skin of nude BALB/c mice; 20% cream, photos under UV lamp after 8 hours
  localization of protoporphyrin IX (PpIX) fluorescence: localized all over the skin
Skin of nude BALB/c mice; applied on the skin of mice
  site of PpIX production after application on the skin of mice (summary statement): induces PpIX in the whole mouse
Naked mice
  UV induction of skin cancer: photo-induced carcinogenesis was delayed
  skin reaction of exposed areas: erythematous
Forearm skin of a person
  content of PpIX produced in the skin areas (fluorescence emission spectra): highest concentration of PpIX
  erythema: significant pronounced erythema
[1]
  concentration in plasma: higher than both ALA methylester and ALA hexylester
Balb/c athymic nude mice; 5 hrs application time
  PpIX outside the application site: significally more PpIX outside the application site
Balb/c athymic nude mice; 20 hrs application time
  PpIX outside the application site: significally more PpIX outside the application site
Human skin [2]; 20% ALA, 1 min light (slightly erythemogenic), 2 weeks after light exposure
  pigmentation: led to later pigmentation
Human skin [2]
  erythema: led to erythema
Human skin [2]; one week after a low dose single nonerythemogenic treatment
  pigmentation (melanogenesis): clearly visible pigmentation (melanogenesis)
Human skin [3]
  erythema spreading out from the area of application: circular, covering both the upper and the lower part of the hand

## CCCCOC(=O)CCC(=O)CN [ALA butyl ester]
Forearm skin of a person
  content of PpIX produced in the skin areas (fluorescence emission spectra): smaller
  erythema: significant but weaker erythema

## CCCCCCOC(=O)CCC(=O)CN [ALA hexyl ester, 5-aminolevulinic acid hexyl ester]
Forearm skin of a person
  content of PpIX produced in the skin areas (fluorescence emission spectra): smallest
  erythema: significant but weaker erythema

## COC(=O)CCC(=O)CN [ALA methyl ester, 5-aminolevulinic acid methyl ester]
[4]; 1% cream, 1 min red laser light, repeated 10 times within 2 weeks
  skin pigmentation: gradually pigmented
[4]; 1% in Unguentum Merck cream, light 1 min (633 nm) one hour after application
  erythema: No erythema was observed
Human skin [2]
  erythema: led to erythema
Human skin [3]
  erythema spreading out from the area of application: only in a half-circle in the upper part of the hand
SKH1 hairless mouse; UV-exposed mice treated on one side with 8% ALA-Me, other side vehicle
  delay in tumor appearance, half body ALA-Me and half body vehicle: observed only on the side treated with ALA-Me
SKH1 hairless mouse; after 26 weeks of UV exposure, groups of 20 mice
  number of mice with large tumors (≧4 mm): one
SKH1 hairless mouse; in vivo fluorescence spectroscopy and fluorescence microscopy at the time of light exposure
  protoporphyrin IX accumulation in tumors versus adjacent UV exposed skin and normal skin: preferential accumulation of protoporhyrin IX in tumors
SKH1 hairless mouse; topical ALA-Me-PDT
  mortality or morbidity: without increasing mortality or morbidity
SKH1 hairless mouse; weekly 8% topical ALA-Me plus 1.2 J/cm^2 light, compared to mice only exposed to UV
  time when the first tumor appeared: significant delay
